In PubChem BioAssay (NCI):
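Results reflect a 48-hour exposure of cells in 96-well plates to compound at five concentrations. At the TGI there is no net growth.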

Tests used:
Experiment in all cases: NCI-60 cell line screen, 48 h
786-0 renal = system: 786-0 renal
A498 renal = system: A498 renal
A549 NSCLC = system: A549 NSCLC
ACHN renal = system: ACHN renal
BT-549 breast = system: BT-549 breast
CAKI-1 renal = system: CAKI-1 renal
CCRF-CEM leukemia = system: CCRF-CEM leukemia
COLO 205 colon = system: COLO 205 colon
DLD-1 colon = system: DLD-1 colon
DMS 114 small cell lung = system: DMS 114 small cell lung
DMS 273 small cell lung = system: DMS 273 small cell lung
DU-145 prostate = system: DU-145 prostate
EKVX NSCLC = system: EKVX NSCLC
HCC-2998 colon = system: HCC-2998 colon
HCT-116 colon = system: HCT-116 colon
HCT-15 colon = system: HCT-15 colon
HL-60(TB) leukemia = system: HL-60(TB) leukemia
HOP-18 NSCLC = system: HOP-18 NSCLC
HOP-62 NSCLC = system: HOP-62 NSCLC
HOP-92 NSCLC = system: HOP-92 NSCLC
HS 578T breast = system: HS 578T breast
HT29 colon = system: HT29 colon
IGROV1 ovarian = system: IGROV1 ovarian
K-562 leukemia = system: K-562 leukemia
KM12 colon = system: KM12 colon
KM20L2 colon = system: KM20L2 colon
LOX IMVI melanoma = system: LOX IMVI melanoma
LXFL 529 NSCLC = system: LXFL 529 NSCLC
M14 melanoma = system: M14 melanoma
M19-MEL melanoma = system: M19-MEL melanoma
MALME-3M melanoma = system: MALME-3M melanoma
MDA-MB-231 breast = system: MDA-MB-231 breast
MDA-MB-435 = system: MDA-MB-435
MDA-N = system: MDA-N
MOLT-4 leukemia = system: MOLT-4 leukemia
NCI-H226 lung = system: NCI-H226 lung
NCI-H23 lung = system: NCI-H23 lung
NCI-H460 lung = system: NCI-H460 lung
NCI-H522 lung = system: NCI-H522 lung
OVCAR-3 ovarian = system: OVCAR-3 ovarian
OVCAR-4 ovarian = system: OVCAR-4 ovarian
OVCAR-5 ovarian = system: OVCAR-5 ovarian
OVCAR-8 ovarian = system: OVCAR-8 ovarian
PC-3 prostate = system: PC-3 prostate
RPMI-8226 leukemia = system: RPMI-8226 leukemia
RXF 393 renal = system: RXF 393 renal
RXF-631 renal = system: RXF-631 renal
SF-268 CNS = system: SF-268 CNS
SF-295 CNS = system: SF-295 CNS
SF-539 CNS = system: SF-539 CNS
SK-MEL-2 melanoma = system: SK-MEL-2 melanoma
SK-MEL-28 melanoma = system: SK-MEL-28 melanoma
SK-MEL-5 melanoma = system: SK-MEL-5 melanoma
SK-OV-3 ovarian = system: SK-OV-3 ovarian
SN12C renal = system: SN12C renal
SNB-19 CNS = system: SNB-19 CNS
SNB-75 CNS = system: SNB-75 CNS
SNB-78 CNS = system: SNB-78 CNS
SR leukemia = system: SR leukemia
SW-620 colon = system: SW-620 colon
TK-10 renal = system: TK-10 renal
U251 CNS = system: U251 CNS
UACC-257 melanoma = system: UACC-257 melanoma
UACC-62 melanoma = system: UACC-62 melanoma
UO-31 renal = system: UO-31 renal

With `CCCCCCCCC/C=C1\CCC(CN2CCOCC2)C1=O` (stereo not given) the TGI (786-0 renal) was 9.69 µM, the TGI (A498 renal) was 24.5 µM and the TGI (A549 NSCLC) was 34.7 µM. The TGI (ACHN renal) was 16.5 µM, the TGI (BT-549 breast) was 3.8 µM and the TGI (CAKI-1 renal) was 6.38 µM. For the same compound, the TGI (CCRF-CEM leukemia) was 6.56 µM, the TGI (COLO 205 colon) was 11.2 µM and the TGI (DLD-1 colon) was 3.9 µM. For the same compound, the TGI (DMS 114 small cell lung) was 7.42 µM, the TGI (DMS 273 small cell lung) was 5.08 µM and the TGI (DU-145 prostate) was 17.5 µM. It also gave a TGI (EKVX NSCLC) of 33.9 µM, a TGI (HCC-2998 colon) of 18.8 µM and a TGI (HCT-116 colon) of 4.04 µM. For the same compound, the TGI (HCT-15 colon) was 7.05 µM, the TGI (HL-60(TB) leukemia) was 4.38 µM and the TGI (HOP-18 NSCLC) was 10.7 µM. It also gave a TGI (HOP-62 NSCLC) of 26.4 µM, a TGI (HOP-92 NSCLC) of 7.4 µM and a TGI (HS 578T breast) of 5.47 µM. It also gave a TGI (HT29 colon) of 8.7 µM, a TGI (IGROV1 ovarian) of 14.8 µM and a TGI (K-562 leukemia) of 15.6 µM. It also gave a TGI (KM12 colon) of 5.2 µM, a TGI (KM20L2 colon) of 20.5 µM and a TGI (LOX IMVI melanoma) of 2.02 µM. It also gave a TGI (LXFL 529 NSCLC) of 2.95 µM, a TGI (M14 melanoma) of 9.41 µM and a TGI (M19-MEL melanoma) of 10.4 µM. For the same compound, the TGI (MALME-3M melanoma) was 19 µM, the TGI (MDA-MB-231 breast) was 11.2 µM and the TGI (MDA-MB-435) was 6.5 µM. The TGI (MDA-N) was 12.7 µM, the TGI (MOLT-4 leukemia) was 5.84 µM and the TGI (NCI-H226 lung) was 15.3 µM. For the same compound, the TGI (NCI-H23 lung) was 9.18 µM, the TGI (NCI-H460 lung) was 21.1 µM and the TGI (NCI-H522 lung) was 6.64 µM. For the same compound, the TGI (OVCAR-3 ovarian) was 24.9 µM, the TGI (OVCAR-4 ovarian) was 12 µM and the TGI (OVCAR-5 ovarian) was 31.6 µM. The TGI (OVCAR-8 ovarian) was 3.13 µM, the TGI (PC-3 prostate) was 4.25 µM and the TGI (RPMI-8226 leukemia) was 1.08 µM. The TGI (RXF 393 renal) was 4 µM, the TGI (RXF-631 renal) was 18.2 µM and the TGI (SF-268 CNS) was 18.2 µM. For the same compound, the TGI (SF-295 CNS) was 20 µM, the TGI (SF-539 CNS) was 3.74 µM and the TGI (SK-MEL-2 melanoma) was 14.6 µM. The TGI (SK-MEL-28 melanoma) was 9.2 µM, the TGI (SK-MEL-5 melanoma) was 18.8 µM and the TGI (SK-OV-3 ovarian) was 31.2 µM. It also gave a TGI (SN12C renal) of 13 µM, a TGI (SNB-19 CNS) of 23.5 µM and a TGI (SNB-75 CNS) of 16 µM. The TGI (SNB-78 CNS) was 15.3 µM, the TGI (SR leukemia) was 6.28 µM and the TGI (SW-620 colon) was 5.43 µM. It also gave a TGI (TK-10 renal) of 5.56 µM, a TGI (U251 CNS) of 3.73 µM and a TGI (UACC-257 melanoma) of 10.7 µM. The TGI (UACC-62 melanoma) was 10.7 µM and the TGI (UO-31 renal) was 14.9 µM.
`CSc1nsc(-c2ccccc2)[s+]1` showed a TGI (786-0 renal) greater than 100 µM, a TGI (A498 renal) greater than 100 µM and a TGI (A549 NSCLC) greater than 100 µM. The TGI (ACHN renal) was greater than 100 µM, the TGI (CAKI-1 renal) was greater than 100 µM and the TGI (CCRF-CEM leukemia) was greater than 100 µM. For the same compound, the TGI (COLO 205 colon) was greater than 100 µM, the TGI (DLD-1 colon) was greater than 100 µM and the TGI (DMS 273 small cell lung) was greater than 100 µM. It also gave a TGI (EKVX NSCLC) greater than 100 µM, a TGI (HCC-2998 colon) greater than 100 µM and a TGI (HCT-116 colon) greater than 100 µM. It also gave a TGI (HCT-15 colon) greater than 100 µM, a TGI (HL-60(TB) leukemia) greater than 100 µM and a TGI (HOP-18 NSCLC) greater than 100 µM. The TGI (HOP-62 NSCLC) was greater than 100 µM, the TGI (IGROV1 ovarian) was greater than 100 µM and the TGI (K-562 leukemia) was greater than 100 µM. For the same compound, the TGI (KM12 colon) was greater than 100 µM, the TGI (KM20L2 colon) was greater than 100 µM and the TGI (M14 melanoma) was greater than 100 µM. For the same compound, the TGI (M19-MEL melanoma) was greater than 100 µM, the TGI (MALME-3M melanoma) was greater than 100 µM and the TGI (MOLT-4 leukemia) was greater than 100 µM. For the same compound, the TGI (NCI-H226 lung) was greater than 100 µM, the TGI (NCI-H460 lung) was greater than 100 µM and the TGI (NCI-H522 lung) was greater than 100 µM. For the same compound, the TGI (OVCAR-3 ovarian) was greater than 100 µM, the TGI (OVCAR-4 ovarian) was greater than 100 µM and the TGI (OVCAR-8 ovarian) was greater than 100 µM. For the same compound, the TGI (RPMI-8226 leukemia) was greater than 100 µM, the TGI (RXF 393 renal) was greater than 100 µM and the TGI (RXF-631 renal) was greater than 100 µM. It also gave a TGI (SF-268 CNS) greater than 100 µM, a TGI (SF-539 CNS) greater than 100 µM and a TGI (SK-MEL-2 melanoma) greater than 100 µM. It also gave a TGI (SK-MEL-28 melanoma) greater than 100 µM, a TGI (SK-MEL-5 melanoma) greater than 100 µM and a TGI (SK-OV-3 ovarian) greater than 100 µM. It also gave a TGI (SN12C renal) greater than 100 µM, a TGI (SNB-19 CNS) greater than 100 µM and a TGI (SNB-75 CNS) greater than 100 µM. It also gave a TGI (SNB-78 CNS) greater than 100 µM, a TGI (SR leukemia) greater than 100 µM and a TGI (SW-620 colon) greater than 100 µM. It also gave a TGI (TK-10 renal) greater than 100 µM, a TGI (U251 CNS) greater than 100 µM and a TGI (UACC-257 melanoma) greater than 100 µM. It also gave a TGI (UACC-62 melanoma) greater than 100 µM and a TGI (UO-31 renal) greater than 100 µM.
